Measurements reported in patent publication US8192749B2, “Methods of simultaneously treating ocular rosacea and acne rosacea” (priority 2003, dated 2012).
Structures can show the parent of a compound that is named as a salt.

Test system: not given
Settings: based on steady-state pharmacokinetics; cited from earlier work

Structure (SMILES)	plasma antibiotic threshold level [µg/mL]
CN(C)[C@@H]1C(O)=C(C(N)=O)C(=O)[C@@]2(O)C(O)=C3C(=O)c4c(O)cccc4[C@@](C)(O)[C@H]3C[C@@H]12 [Tetracycline, reference compound]	0.5

Test system: not given
Settings: 250 mg every six hours over a twenty-four hour period; cited from earlier work

Structure (SMILES)	peak plasma concentration
CN(C)[C@@H]1C(O)=C(C(N)=O)C(=O)[C@@]2(O)C(O)=C3C(=O)c4c(O)cccc4[C@@](C)(O)[C@H]3C[C@@H]12 [tetracycline HCl]	approximately 3 μg/ml

Test system: not given
Settings: single dose of two 100 mg minocycline HCl tablets, adult humans; cited from earlier work

Structure (SMILES)	average minocycline serum level [µg/mL]
CN(C)c1ccc(O)c2c1C[C@H]1C[C@H]3[C@H](N(C)C)C(O)=C(C(N)=O)C(=O)[C@@]3(O)C(O)=C1C2=O [minocycline HCl]	2.24

Test system: BALB/c 3T3 (CCL-163) cells
Settings: not given

Structure (SMILES)	MPE	PIF 1	PIF 2	mean PIF2
CC1c2cccc(O)c2C(=O)C2=C(O)C3(O)C(=O)C(C(=O)NCN4CCCCC4)=C(O)CC3C(O)C21 (stereo not shown) [COL 808, 2-CONHCH2-piperidin-1-yl-4-dedimethylaminodoxycycline]	0.387	46.45	–	–
O=C(NCN1CCOCC1)C1=C(O)CC2CC3Cc4cccc(O)c4C(=O)C3=C(O)C2(O)C1=O (stereo not shown) [COL 314, 2-CONHCH2-morpholin-1-yl-6-demetlyl-6-deoxy-4-dedimethylaminotetracycline]	0.475	41.1	89.48	–
CC1c2cccc(O)c2C(=O)C2=C(O)C3(O)C(=O)C(C(N)=O)=C(O)CC3C(O)C21 (stereo not shown) [COL 8, 4-dedimethylaminodoxycycline]	0.703	165	82.61	–
CC1c2cccc(O)c2C(=O)C2=C(O)C3(O)C(=O)C(C(=O)NCN4CCNCC4)=C(O)CC3C(O)C21 (stereo not shown) [COL 809, 2-CONHCH2-piperazin-1-yl-4-dedimethylaminodoxycycline]	0.420	–	–	–
CC1(O)c2c(Cl)ccc(O)c2C(=O)C2=C(O)C3(O)C(=O)C(C(N)=O)=C(O)CC3CC21 (stereo not shown) [COL 4, 7-chloro-4-dedimethylaminotetracycline]	0.570	–	–	–
CN(C)CC(=O)Nc1ccc2c(c1O)C(=O)C1=C(O)C3(O)C(=O)C(C(N)=O)=C(O)CC3CC1C2 (stereo not shown) [COL 309, 9-dimethylaminoacetamido-6-demethyl-6-deoxy-4-dedimethylaminotetracycline]	0.170	5.17	12.87	–
NC(=O)C1=C(O)C[C@@H]2C[C@@H]3Cc4cccc(O)c4C(=O)C3=C(O)[C@]2(O)C1=O [COL 3, 6-demethyl-6-deoxy-4-dedimethylaminotetracycline]	0.654	647	84.72	–
NC(=O)C1=C(O)CC2CC3Cc4c(N)ccc(O)c4C(=O)C3=C(O)C2(O)C1=O (stereo not shown) [COL 307, 7-amino-6-demethyl-6-deoxy-4-dedimethylaminotetracycline]	0.056	1.17	–	–
CCCCCCCCCCCCCCCC(=O)Nc1ccc2c(c1O)C(=O)C1=C(O)C3(O)C(=O)C(C(N)=O)=C(O)CC3CC1C2 (stereo not shown) [COL 311, 9-palmitamide-6-demethyl-6-deoxy-4-dedimethylaminotetracycline]	0.013	1.0	–	–
NC(=O)C1=C(O)CC2CC3Cc4ccc(N)c(O)c4C(=O)C3=C(O)C2(O)C1=O (stereo not shown) [COL 308, 9-amino-6-demethyl-6-deoxy-4-dedimethylaminotetracycline]	0.015	1.0	–	–
CN(C)C1C(=O)C(C#N)=C(O)C2(O)C(=O)C3=C(O)c4c(O)cccc4C(C)(O)C3CC12 (stereo not shown) [COL 2, tetracyclinonitrile]	0.005	–	–	–
C[N+](C)(C)c1ccc(O)c2c1CC1CC3CC(O)=C(C(N)=O)C(=O)C3(O)C(O)=C1C2=O (stereo not shown) [COL 1001, 7-trimethylammonium-4-dedimethylaminosancycline]	0.025	–	–	–
CC1c2ccc([N+](=O)[O-])c(O)c2C(=O)C2=C(O)C3(O)C(=O)C(C(N)=O)=C(O)CC3C(O)C21 (stereo not shown) [COL 804, 9-nitro-4-dedimethylaminodoxycycline]	0.003	1.0	–	–
CC1c2ccc(NC(=O)CN(C)C)c(O)c2C(=O)C2=C(O)C3(O)C(=O)C(C(N)=O)=C(O)CC3C(O)C21 (stereo not shown) [COL 802, 9-dimethylaminoacetamido-4-dedimethylaminodoxycycline]	−0.123	1.0	–	–
CC(=O)Nc1ccc2c(c1O)C(=O)C1=C(O)C3(O)C(=O)C(C(N)=O)=C(O)CC3C(O)C1C2C (stereo not shown) [COL 801, 9-acetamido-4-dedimethylaminodoxycycline]	−0.001	1.0	–	–
CN(C)c1cc([N+](=O)[O-])c(O)c2c1CC1CC3CC(O)=C(C(N)=O)C(=O)C3(O)C(O)=C1C2=O (stereo not shown) [COL 1002, 9-nitro-4-dedimethylaminominocycline]	0.040	1.0	1.35	1.35

Structure (SMILES)	MPE	PIF 1	PIF 2	mean PIF2
CC1(O)c2cccc(O)c2C(=O)C2=C(O)C3(O)C(=O)C(C(N)=O)=C(O)CC3CC21 (stereo not shown) [COL 1, 4-dedimethylaminotetracycline]	0.460	–	–	–
NC(=O)C1=C(O)CC2CC3Cc4ccc([N+](=O)[O-])c(O)c4C(=O)C3=C(O)C2(O)C1=O (stereo not shown) [COL 303, 9-nitro-6-demethyl-6-deoxy-4-dedimethylaminotetracycline]	0.309	5.27	13.82	–
Cc1c2c(c(O)c3c(O)cccc13)C(=O)C1C(=O)C(C(N)=O)=C(O)CC1C2 (stereo not drawn) [COL 9, 4-de(dimethylamino)-12α-deoxyanhydrotetracycline]	0.546	–	–	–
O=C(NCN1CCNCC1)C1=C(O)CC2CC3Cc4cccc(O)c4C(=O)C3=C(O)C2(O)C1=O (stereo not shown) [COL 315, 2-CONHCH2-piperazin-1-yl-6-demethyl-6-deoxy-4-dedimethylaminotetracycline]	0.276	15.8	35.30	–
CN(C)c1ccc(O)c2c1CC1CC3CC(O)=C(C(N)=O)C(=O)C3(O)C(O)=C1C2=O (stereo not shown) [COL 10, 4-dedimethylaminominocycline]	0.099	1.82	2.04	2.04
CC1c2ccc(N)c(O)c2C(=O)C2=C(O)C3(O)C(=O)C(C(N)=O)=C(O)CC3C(O)C21 (stereo not shown) [COL 805, 9-amino-4-dedimethylaminodoxycycline]	0.022	1.0	–	–
O=C(NCN1CCCCC1)C1=C(O)CC2CC3Cc4cccc(O)c4C(=O)C3=C(O)C2(O)C1=O (stereo not shown) [COL 313, 2-CONHCH2-piperidin-1-yl-6-demethyl-6-deoxy-4-dedimethylaminotetracycline]	0.462	80.27	58.22	–
CC1(O)c2cccc(O)c2C(=O)C2=C(O)C3C(=O)C(C(N)=O)=C(O)CC3CC21 (stereo not drawn) [COL 7, 4-dedimethylamino-12α-deoxytetracycline]	0.531	–	–	–
O=C(NCN1CCCC1)C1=C(O)CC2CC3Cc4cccc(O)c4C(=O)C3=C(O)C2(O)C1=O (stereo not shown) [COL 312, 2-CONHCH2-pyrrolidin-1-yl-6-demethyl-6-deoxy-4-dedimethylaminotetracycline]	0.442	62.67	75.11	–
CN(C)c1ccc2c(c1O)C(=O)C1=C(O)C3(O)C(=O)C(C(N)=O)=C(O)CC3CC1C2 (stereo not shown) [COL 306, 9-dimethylamino-6-demethyl-6-deoxy-4-dedimethylaminotetracycline]	0.038	1.64	1.56	–
CC1(O)c2cccc(O)c2C(=O)C2=C(O)C3(O)C(=O)C(C(N)=O)=C(O)C(O)C3CC21 (stereo not shown) [COL 6, 4-hydroxy-4-dedimethylaminotetracycline]	0.155	–	–	–
NC(=O)C1=C(O)CC2CC3Cc4c([N+](=O)[O-])ccc(O)c4C(=O)C3=C(O)C2(O)C1=O (stereo not shown) [COL 302, 7-nitro-6-demethyl-6-deoxy-4-dedimethylaminotetracycline]	0.378	23.16	23.32	–
CC1c2cccc(O)c2C(=O)C2=C(O)C3(O)C(=O)C(C(=O)NCN4CCCC4)=C(O)CC3C(O)C21 (stereo not shown) [COL 807, 2-CONHCH2-pyrrolidin-1-yl-4-dedimethylaminodoxycycline]	0.382	40.4	–	–
CCCCCCCCCCCCCCCC(=O)Nc1ccc2c(c1O)C(=O)C1=C(O)C3(O)C(=O)C(C(N)=O)=C(O)CC3C(O)C1C2C (stereo not shown) [COL 803, 9-palmitamide-4-dedimethylaminodoxycycline]	0.047	–	–	–
CC(=O)Nc1ccc2c(c1O)C(=O)C1=C(O)C3(O)C(=O)C(C(N)=O)=C(O)CC3CC1C2 (stereo not shown) [COL 305, 9-acetamido-6-demethyl-6-deoxy-4-dedimethylaminotetracycline]	0.420	–	–	–

Same assay, conditions: mouse

Structure (SMILES)	MPE	PIF 2	PIF 1
CN(C)CCCN1c2ccccc2Sc2ccc(Cl)cc21 [Chlorpromazine, reference compound]	0.639	40.38	–
C[C@H]1c2cccc(O)c2C(=O)C2=C(O)[C@]3(O)C(=O)C(C(N)=O)=C(O)[C@@H](N(C)C)[C@@H]3[C@@H](O)[C@@H]21 [Doxycycline, 6α-deoxy-5-hydroxytetracycline, reference compound]	0.522	26.71	23.37
CN(C)[C@@H]1C(O)=C(C(N)=O)C(=O)[C@@]2(O)C(O)=C3C(=O)c4c(O)cccc4[C@@](C)(O)[C@H]3C[C@@H]12 [Tetracycline, reference compound]	0.340	–	5.38
